Test results as given in patent US10870647B2, “Imidazopyridine derivative, method for preparing same, and pharmaceutical composition containing same as active ingredient for preventing or treating cancer” (DAEGU-GYEONGBUK MEDICAL INNOVATION FOUNDATION, priority 2016, dated 2020).
Read-outs that look alike come from different tables or passages of the source.

Experiments:
Test in all cases: Kinase selectivity, scanMAX Kinase assay panel (DiscoverX), % control at 1 uM
Type in all cases: binding
[1] = biological target: T1, scanMAX Kinase assay panel (Homo sapiens, UniProt P36888, D835Y); details: FLT3 (D835Y); 1 uM; read-out: Percent Control (%)
T1 construct: purchased DiscoverX
T1 sequence (P36888 27-993 D835Y): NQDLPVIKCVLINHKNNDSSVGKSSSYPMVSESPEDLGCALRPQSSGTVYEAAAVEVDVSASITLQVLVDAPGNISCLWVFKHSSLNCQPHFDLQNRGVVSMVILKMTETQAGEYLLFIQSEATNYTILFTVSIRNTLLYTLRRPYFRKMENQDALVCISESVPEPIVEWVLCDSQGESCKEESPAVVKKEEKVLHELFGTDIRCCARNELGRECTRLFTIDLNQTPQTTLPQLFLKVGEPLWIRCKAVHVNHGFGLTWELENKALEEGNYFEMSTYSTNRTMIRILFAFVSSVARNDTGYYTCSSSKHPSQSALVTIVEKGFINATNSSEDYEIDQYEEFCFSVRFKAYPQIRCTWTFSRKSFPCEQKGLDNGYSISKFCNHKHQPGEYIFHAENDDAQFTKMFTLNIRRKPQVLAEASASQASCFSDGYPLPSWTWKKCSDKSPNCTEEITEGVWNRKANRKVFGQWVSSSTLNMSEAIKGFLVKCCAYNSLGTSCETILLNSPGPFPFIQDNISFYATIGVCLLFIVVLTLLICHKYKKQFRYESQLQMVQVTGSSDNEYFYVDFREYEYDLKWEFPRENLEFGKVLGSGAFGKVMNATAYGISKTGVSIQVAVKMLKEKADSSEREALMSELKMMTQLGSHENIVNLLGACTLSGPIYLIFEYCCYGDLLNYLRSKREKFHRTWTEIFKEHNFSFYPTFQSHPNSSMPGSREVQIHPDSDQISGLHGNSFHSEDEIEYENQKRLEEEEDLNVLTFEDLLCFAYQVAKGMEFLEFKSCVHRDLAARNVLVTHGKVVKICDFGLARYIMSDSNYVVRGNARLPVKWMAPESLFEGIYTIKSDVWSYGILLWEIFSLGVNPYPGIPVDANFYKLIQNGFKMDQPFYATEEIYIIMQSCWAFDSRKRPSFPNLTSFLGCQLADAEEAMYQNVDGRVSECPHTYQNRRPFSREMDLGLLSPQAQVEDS
Summary of the method: (§1)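 Activity was called for kinases showing % control under 35, calculated from compound signal relative to positive and negative controls. Each compound screened at 1 uM against the DiscoverX scanMAX panel.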

[2] = biological target: T2, scanMAX Kinase assay panel (Homo sapiens, UniProt P00519); details: 1 uM, read-out: Percent Control (%)
T2 construct: purchased DiscoverX
T2 sequence (P00519 whole entry): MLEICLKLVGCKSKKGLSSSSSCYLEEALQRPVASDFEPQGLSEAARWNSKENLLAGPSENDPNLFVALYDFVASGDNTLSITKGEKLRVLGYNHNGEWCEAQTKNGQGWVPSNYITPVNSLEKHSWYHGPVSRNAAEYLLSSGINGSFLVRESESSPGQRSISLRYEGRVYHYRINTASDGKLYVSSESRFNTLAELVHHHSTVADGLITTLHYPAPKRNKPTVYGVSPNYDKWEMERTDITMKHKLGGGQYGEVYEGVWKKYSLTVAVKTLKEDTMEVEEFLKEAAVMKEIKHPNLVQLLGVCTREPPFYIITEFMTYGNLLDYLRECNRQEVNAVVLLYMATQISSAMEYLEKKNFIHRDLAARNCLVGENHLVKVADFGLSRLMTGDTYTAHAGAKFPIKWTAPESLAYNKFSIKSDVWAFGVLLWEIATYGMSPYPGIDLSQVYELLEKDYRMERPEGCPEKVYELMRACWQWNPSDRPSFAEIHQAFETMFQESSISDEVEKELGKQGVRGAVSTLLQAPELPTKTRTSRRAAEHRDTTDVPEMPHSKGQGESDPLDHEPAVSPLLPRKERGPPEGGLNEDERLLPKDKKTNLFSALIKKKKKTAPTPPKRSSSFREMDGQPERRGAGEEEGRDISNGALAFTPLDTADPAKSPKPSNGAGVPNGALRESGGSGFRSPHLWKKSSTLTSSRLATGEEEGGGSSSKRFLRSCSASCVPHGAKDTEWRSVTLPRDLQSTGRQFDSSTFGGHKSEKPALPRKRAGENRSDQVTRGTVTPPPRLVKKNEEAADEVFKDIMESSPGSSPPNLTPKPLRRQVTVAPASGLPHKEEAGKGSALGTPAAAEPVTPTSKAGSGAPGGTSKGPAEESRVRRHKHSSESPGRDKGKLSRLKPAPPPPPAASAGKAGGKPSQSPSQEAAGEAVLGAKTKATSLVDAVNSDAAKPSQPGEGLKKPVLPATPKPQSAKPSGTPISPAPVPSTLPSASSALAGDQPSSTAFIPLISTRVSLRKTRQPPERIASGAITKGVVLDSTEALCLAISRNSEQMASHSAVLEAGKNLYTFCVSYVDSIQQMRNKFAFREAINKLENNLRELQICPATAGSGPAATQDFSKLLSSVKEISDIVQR
Summary of the method: as §1

[3] = biological target: T3, scanMAX Kinase assay panel (Homo sapiens, UniProt Q16620); details: TRKB; 1 uM; read-out: Percent Control (%)
T3 construct: purchased DiscoverX
T3 sequence (Q16620 32-822): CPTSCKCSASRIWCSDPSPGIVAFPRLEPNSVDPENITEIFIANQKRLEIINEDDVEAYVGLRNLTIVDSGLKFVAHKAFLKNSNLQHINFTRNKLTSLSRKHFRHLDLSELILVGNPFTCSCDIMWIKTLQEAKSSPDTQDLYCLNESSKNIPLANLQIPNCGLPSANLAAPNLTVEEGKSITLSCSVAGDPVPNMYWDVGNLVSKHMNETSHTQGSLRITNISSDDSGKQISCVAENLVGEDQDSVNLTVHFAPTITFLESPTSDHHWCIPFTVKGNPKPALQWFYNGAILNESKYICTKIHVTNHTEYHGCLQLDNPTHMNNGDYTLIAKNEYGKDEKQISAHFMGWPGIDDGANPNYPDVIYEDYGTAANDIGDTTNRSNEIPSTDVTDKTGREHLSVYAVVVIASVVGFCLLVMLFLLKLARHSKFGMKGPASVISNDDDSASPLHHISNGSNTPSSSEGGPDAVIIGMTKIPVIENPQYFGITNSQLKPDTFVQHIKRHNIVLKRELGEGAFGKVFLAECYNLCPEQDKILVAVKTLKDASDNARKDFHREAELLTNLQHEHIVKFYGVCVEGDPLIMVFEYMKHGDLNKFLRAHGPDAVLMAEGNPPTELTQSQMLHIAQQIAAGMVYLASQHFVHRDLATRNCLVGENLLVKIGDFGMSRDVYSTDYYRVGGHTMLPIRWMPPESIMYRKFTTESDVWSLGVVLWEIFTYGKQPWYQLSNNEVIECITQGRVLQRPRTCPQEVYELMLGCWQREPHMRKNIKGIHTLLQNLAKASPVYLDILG
Summary of the method: as §1

[4] = biological target: T4, scanMAX Kinase assay panel (Homo sapiens, UniProt O14936); details: CASK; 1 uM; read-out: Percent Control (%)
T4 construct: purchased DiscoverX
T4 sequence (O14936 1-926): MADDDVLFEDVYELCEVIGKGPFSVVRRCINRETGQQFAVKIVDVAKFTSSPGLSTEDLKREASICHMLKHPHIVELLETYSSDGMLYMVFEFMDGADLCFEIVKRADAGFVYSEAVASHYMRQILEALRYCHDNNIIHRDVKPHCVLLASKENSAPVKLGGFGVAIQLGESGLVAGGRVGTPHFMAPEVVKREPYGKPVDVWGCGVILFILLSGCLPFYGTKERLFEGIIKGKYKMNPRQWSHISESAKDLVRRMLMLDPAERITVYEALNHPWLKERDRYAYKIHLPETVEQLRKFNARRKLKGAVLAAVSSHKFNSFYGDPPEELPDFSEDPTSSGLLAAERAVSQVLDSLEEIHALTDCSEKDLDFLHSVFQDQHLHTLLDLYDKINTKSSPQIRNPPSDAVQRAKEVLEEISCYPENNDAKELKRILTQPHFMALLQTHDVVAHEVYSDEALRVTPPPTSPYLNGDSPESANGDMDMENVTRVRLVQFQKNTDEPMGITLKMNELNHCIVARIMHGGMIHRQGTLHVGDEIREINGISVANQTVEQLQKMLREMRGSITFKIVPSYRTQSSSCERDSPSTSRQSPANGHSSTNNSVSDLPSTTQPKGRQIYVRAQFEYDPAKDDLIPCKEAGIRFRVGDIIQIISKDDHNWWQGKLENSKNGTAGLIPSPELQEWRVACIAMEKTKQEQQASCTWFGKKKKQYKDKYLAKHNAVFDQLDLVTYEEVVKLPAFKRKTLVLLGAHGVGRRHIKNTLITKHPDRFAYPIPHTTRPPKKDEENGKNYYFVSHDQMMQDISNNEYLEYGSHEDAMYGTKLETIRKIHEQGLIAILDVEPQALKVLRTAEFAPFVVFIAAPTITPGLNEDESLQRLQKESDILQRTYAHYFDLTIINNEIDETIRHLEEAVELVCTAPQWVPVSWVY
Summary of the method: as §1

[5] = biological target: T5, scanMAX Kinase assay panel (Homo sapiens, UniProt P41240); details: CSK; 1 uM; read-out: Percent Control (%)
T5 construct: purchased DiscoverX
T5 sequence (P41240 whole entry): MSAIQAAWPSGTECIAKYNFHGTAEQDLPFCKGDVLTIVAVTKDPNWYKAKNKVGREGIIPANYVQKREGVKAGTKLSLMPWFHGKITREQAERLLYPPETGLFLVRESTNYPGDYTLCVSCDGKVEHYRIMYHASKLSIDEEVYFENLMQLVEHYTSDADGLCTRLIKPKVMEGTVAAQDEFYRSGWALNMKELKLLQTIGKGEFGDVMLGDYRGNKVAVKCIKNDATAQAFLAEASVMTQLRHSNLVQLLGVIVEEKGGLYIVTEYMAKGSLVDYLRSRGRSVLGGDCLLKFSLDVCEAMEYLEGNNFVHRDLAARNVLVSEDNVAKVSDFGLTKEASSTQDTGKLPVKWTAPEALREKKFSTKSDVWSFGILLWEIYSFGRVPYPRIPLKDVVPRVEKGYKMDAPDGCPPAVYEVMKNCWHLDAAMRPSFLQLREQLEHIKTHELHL
Summary of the method: as §1

[6] = biological target: T6, scanMAX Kinase assay panel (Homo sapiens, UniProt P10721, A829P); details: KIT (A829P); 1 uM; read-out: Percent Control (%)
T6 construct: purchased DiscoverX
T6 sequence (P10721 26-976 A829P): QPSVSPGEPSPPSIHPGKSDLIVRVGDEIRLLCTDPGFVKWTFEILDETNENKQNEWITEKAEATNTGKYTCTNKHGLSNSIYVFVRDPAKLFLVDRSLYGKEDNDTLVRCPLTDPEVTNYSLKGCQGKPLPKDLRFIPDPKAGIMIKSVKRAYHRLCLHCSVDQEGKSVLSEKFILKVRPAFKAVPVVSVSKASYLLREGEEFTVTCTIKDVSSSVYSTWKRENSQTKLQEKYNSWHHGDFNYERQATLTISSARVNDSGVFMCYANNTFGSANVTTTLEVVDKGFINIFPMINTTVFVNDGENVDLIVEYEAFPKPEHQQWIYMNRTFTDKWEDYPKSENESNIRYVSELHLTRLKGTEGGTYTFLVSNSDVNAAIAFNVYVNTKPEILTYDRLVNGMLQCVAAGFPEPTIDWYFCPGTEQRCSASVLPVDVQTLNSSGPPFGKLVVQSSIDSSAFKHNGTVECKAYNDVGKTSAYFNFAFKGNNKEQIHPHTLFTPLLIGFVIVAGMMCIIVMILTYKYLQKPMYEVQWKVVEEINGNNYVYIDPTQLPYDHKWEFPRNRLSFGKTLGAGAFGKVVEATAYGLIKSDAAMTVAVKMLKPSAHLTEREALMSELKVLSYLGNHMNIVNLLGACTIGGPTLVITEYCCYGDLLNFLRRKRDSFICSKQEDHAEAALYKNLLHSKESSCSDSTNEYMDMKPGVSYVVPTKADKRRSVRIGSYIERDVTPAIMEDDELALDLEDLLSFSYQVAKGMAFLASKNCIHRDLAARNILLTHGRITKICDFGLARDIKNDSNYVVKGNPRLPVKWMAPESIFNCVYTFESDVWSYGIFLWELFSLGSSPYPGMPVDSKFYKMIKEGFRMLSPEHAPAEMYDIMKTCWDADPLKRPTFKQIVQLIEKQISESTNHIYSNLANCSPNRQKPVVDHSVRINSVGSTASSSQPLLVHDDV
Summary of the method: as §1

| Structure (SMILES) | remaining binding at 1 µM [1] [%] | remaining binding at 1 µM ([2]; ABL1-nonphosphorylated) [%] | remaining binding at 1 µM ([2]; ABL1-phosphorylated) [%] | remaining binding at 1 µM [3] [%] | remaining binding at 1 µM [4] [%] | remaining binding at 1 µM [5] [%] | remaining binding at 1 µM [6] [%] |
| --- | --- | --- | --- | --- | --- | --- | --- |
| Cc1ccc(NC(=O)C2(C(=O)Nc3ccc(F)cc3)CC2)cc1C#Cc1cnc2c(Nc3cnn(C(C)C)c3)cccn12 [Example 78] | 79 | 4 | 56 | 89 | 100 | 98 | 21 |
| Cc1cn(-c2cc(NC(=O)c3ccc(C)c(C#Cc4cnc5c(Nc6cnn(C)c6)cccn45)c3)cc(C(F)(F)F)c2)cn1 [Example 12, 4-methyl-N-(3-(4-methyl-1H-imidazol-1-yl)-5-(trifluoromethyl)phenyl)-3-((8-((1-methyl-1H-pyrazol-4-yl)amino)imidazo[1,2-a]pyridin-3-yl)ethynyl)benzamide] | 14 | 1 | 6 | 16 | 90 | 1 | 29 |
| Cc1ccc(C(=O)Nc2ccc(CN3CCN(C)CC3)c(C(F)(F)F)c2)cc1C#Cc1cnc2c(Nc3cnn(C)c3)cccn12 [Example 1, 4-methyl-3-((8-((1-methyl-1H-pyrazol-4-yl)amino)imidazo[1,2-a]pyridin-3-yl)ethynyl)-N-(4-((4-methylpiperazin-1-yl)methyl)-3-(trifluoromethyl)phenyl)benzamide] | 5 | 1 | 0 | 0 | 74 | 2 | 4 |
